{"source": "paper PMC11277083", "about": "“A Natural Bioactive Peptide from Pinctada fucata Pearls Can Be Used as a Potential Inhibitor of the Interaction between SARS-CoV-2 and ACE2 against COVID-19” (International Journal of Molecular Sciences, 2024)", "key": {"[1]": {"system": "ACE2", "conditions": "reduces the affinity between spiny proteins and ACE2; cited from earlier work"}, "[2]": {"target": "ACE2", "conditions": "compared with KKCH-ACE2 affinity; cited from earlier work"}, "[3]": {"system": "virus S1 protein and the ACE2 receptor", "conditions": "cited from earlier work"}, "[4]": {"target": "T1, S1-RBD/ACE2 (Homo sapiens, UniProt Q9BYF1)", "T1 construct": "purchased RayBio (RayBiotech)", "T1 sequence (Q9BYF1 18-740)": "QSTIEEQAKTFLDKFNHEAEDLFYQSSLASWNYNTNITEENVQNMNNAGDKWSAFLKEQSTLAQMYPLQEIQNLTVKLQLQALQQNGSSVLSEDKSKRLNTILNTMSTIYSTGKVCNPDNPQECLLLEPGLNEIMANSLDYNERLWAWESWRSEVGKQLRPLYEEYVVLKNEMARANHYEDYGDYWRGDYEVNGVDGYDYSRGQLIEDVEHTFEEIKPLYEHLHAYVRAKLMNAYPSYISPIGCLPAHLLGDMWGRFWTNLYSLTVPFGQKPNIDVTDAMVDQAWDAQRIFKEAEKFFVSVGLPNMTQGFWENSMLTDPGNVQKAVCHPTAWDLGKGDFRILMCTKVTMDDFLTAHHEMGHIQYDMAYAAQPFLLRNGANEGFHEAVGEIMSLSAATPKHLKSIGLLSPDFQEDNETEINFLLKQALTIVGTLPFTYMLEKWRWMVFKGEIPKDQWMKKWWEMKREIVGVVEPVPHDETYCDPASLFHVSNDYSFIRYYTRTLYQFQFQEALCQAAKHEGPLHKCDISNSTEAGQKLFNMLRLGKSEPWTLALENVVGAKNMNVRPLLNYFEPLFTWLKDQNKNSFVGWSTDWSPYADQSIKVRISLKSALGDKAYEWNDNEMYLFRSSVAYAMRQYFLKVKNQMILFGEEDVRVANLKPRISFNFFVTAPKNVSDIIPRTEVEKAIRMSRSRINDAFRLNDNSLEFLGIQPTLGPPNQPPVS", "assay": "ELISA inhibition of S1-RBD binding to ACE2 (RayBio COVID-19 Spike ACE2 binding assay kit II)", "set-up": "species or system SARS-CoV-2 (S1-RBD)", "conditions": "2 h, room temperature, 450 nm, repeated twice in each group, read-out: inhibitory rate on S1-RBD/ACE2", "method": "The RayBio COVID-19 Spike ACE2 binding assay kit II (no. QHD43416) was used to detect the inhibitory effect of the KKCH peptides on the binding of the RBD protein and the ACE2 receptor protein. Using a PBS solution, KKCH was diluted to 10 μM, 90 μM, 180 μM, 360 μM, 720 μM, and 1440 μM. Then, 125 μL of test reagent was obtained by mixing different concentrations of the 10 μL KKCH peptide solutions with Fc-labeled recombinant S1-RBD protein solution. Next, 100 μL of test reagent was added to each well of a 96-well plate coated with the recombinant ACE2 protein, repeated twice in each group, and incubated at room temperature for 2 h. The plates were washed four times with a wash buffer to remove unbound S1-RBD proteins. Then, 100 μL of enzyme-labeled Anti-IgG was added to each well and incubated for 1 h, 100 μL of TMB was added at room temperature and incubated for 0.5 h, and 50 μL […] the reaction. The yellow intensity was measured at 450 nm, and the inhibition rate of the KKCH peptide was calculated."}, "[5]": {"target": "T2, ACE2 protein (Homo sapiens, UniProt Q9BYF1)", "T2 construct": "purchased CUSABIO (Wuhan, China) CSB-MP866317HU", "T2 sequence (Q9BYF1 18-805)": "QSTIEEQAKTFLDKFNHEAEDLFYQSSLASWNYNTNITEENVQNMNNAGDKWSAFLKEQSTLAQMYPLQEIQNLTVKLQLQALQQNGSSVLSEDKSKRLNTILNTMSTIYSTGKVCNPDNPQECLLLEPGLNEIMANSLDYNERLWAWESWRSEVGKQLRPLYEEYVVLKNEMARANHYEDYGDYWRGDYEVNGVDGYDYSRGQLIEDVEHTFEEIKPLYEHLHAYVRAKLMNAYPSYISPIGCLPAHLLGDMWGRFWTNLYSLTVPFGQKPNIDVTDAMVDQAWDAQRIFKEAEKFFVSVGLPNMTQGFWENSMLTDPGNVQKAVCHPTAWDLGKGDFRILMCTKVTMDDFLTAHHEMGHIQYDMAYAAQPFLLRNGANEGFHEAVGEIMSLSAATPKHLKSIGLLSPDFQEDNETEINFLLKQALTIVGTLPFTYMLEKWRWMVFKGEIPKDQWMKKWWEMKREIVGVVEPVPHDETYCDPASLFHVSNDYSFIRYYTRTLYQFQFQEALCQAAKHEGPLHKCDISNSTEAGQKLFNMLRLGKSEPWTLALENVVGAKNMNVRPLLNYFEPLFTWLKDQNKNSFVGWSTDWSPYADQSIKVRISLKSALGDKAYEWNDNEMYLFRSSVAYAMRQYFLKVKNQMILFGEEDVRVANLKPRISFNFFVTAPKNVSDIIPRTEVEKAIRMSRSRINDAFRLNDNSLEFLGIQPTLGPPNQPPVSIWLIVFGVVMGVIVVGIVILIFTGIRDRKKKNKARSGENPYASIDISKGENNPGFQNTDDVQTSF", "assay": "SPR affinity for ACE2 (Biacore T200, CM5 chip)", "conditions": "ACE2 on CM5 chip, 1:1 Langmuir binding model, read-out: association (Ka)", "quoted_text": "The ACE2 protein (no. CSB-MP866317HU) was a recombinant human protein purchased from CUSABIO (Wuhan, China). […] The ACE2 protein was diluted to 50 μg/mL with sodium acetate at pH 4.0. The protein was fixed on the CM5 chip at a flow rate of 10 μL/min, and the coupling time was 420 s. […] Biacore T200 Control software (v.2.0) was used to collect sample data, and the 1:1 Langmuir binding model was fitted globally to determine the final KD. The binding affinity KD could be calculated from dissociation (Kd)/association (Ka)."}, "[6]": {"system": "SARS-CoV-2 live virus", "conditions": "2 h"}, "[7]": {"system": "Vero cells", "conditions": "for survival rate of Vero cells: 2 h"}, "[8]": {"system": "BEAS-2B cells"}, "[9]": {"system": "HEK293T cells", "conditions": "for survival rate of HEK293T cells: 2 h"}, "[10]": {"system": "HEK293T", "conditions": "394.10 μM; cited from earlier work"}}, "note": "Read-outs that look alike come from different tables or passages of the source. Where no end group is shown, it is not given here."}
{"compound": "CCN(CC)CCCC(C)Nc1ccnc2cc(Cl)ccc12", "note": "(stereo not shown) [chloroquine]", "values": [{"measurement": "effect on ACE2", "setting": "[1]", "value": "can prevent the glycosylation of ACE2"}]}
{"compound": "C[C@@]1(C(=O)O)CC[C@]2(C)CC[C@]3(C)C4=CC(=O)c5c(cc(O)c(O)c5C=O)[C@]4(C)CC[C@@]3(C)[C@@H]2C1", "note": "[demethylzeylasteral]", "values": [{"measurement": "Kd", "setting": "[2]", "value": 1.74, "unit": "µM"}]}
{"compound": "C[C@@H]1C[C@H]2[C@@H]3CCC4=CC(=O)C=C[C@]4(C)[C@@]3(F)[C@@H](O)C[C@]2(C)[C@@]1(O)C(=O)CO", "note": "[dexamethasone]", "values": [{"measurement": "Kd", "setting": "[2]", "value": 9.03, "unit": "µM"}]}
{"compound": "O=c1c(-c2ccc(O)cc2)coc2c([C@@H]3O[C@H](CO)[C@@H](O)[C@H](O)[C@H]3O)c(O)ccc12", "note": "[puerarin]", "values": [{"measurement": "Kd", "setting": "[2]", "value": 670, "unit": "µM"}, {"measurement": "reduction of RU values of S1 protein and ACE2", "setting": "[3]", "value": 20, "unit": "units"}]}
{"compound": "KKCHFWPFPW [KKCH]", "values": [{"measurement": "inhibition at 10 µM", "setting": "[4]; 10 μM", "value": 6.8, "unit": "%"}, {"measurement": "inhibition at 90 µM", "setting": "[4]; 90 μM", "value": 10.9, "unit": "%"}, {"measurement": "inhibition at 180 µM", "setting": "[4]; 180 μM", "value": 17, "unit": "%"}, {"measurement": "inhibition at 360 µM", "setting": "[4]; 360 μM", "value": 34, "unit": "%"}, {"measurement": "inhibition at 720 µM", "setting": "[4]; 720 μM", "value": 89.7, "unit": "%"}, {"measurement": "inhibition at 1440 µM", "setting": "[4]; 1440 μM", "value": 94.1, "unit": "%"}, {"measurement": "kon", "setting": "[5]", "value": "154000 ± 1.5e+09", "unit": "M⁻¹ s⁻¹"}, {"measurement": "inhibitory rate against SARS-CoV-2", "setting": "[6]; 10 μM", "value": 4.97, "unit": "%"}, {"measurement": "inhibitory rate against SARS-CoV-2", "setting": "[6]; 25 μM", "value": 11.32, "unit": "%"}, {"measurement": "inhibitory rate against SARS-CoV-2", "setting": "[6]; 50 μM", "value": 15.40, "unit": "%"}, {"measurement": "inhibitory rate against SARS-CoV-2", "setting": "[6]; 100 μM", "value": 17.91, "unit": "%"}, {"measurement": "inhibitory rate against SARS-CoV-2", "setting": "[6]; 150 μM", "value": 22.41, "unit": "%"}, {"measurement": "inhibitory rate against SARS-CoV-2", "setting": "[6]; 200 μM", "value": 32.01, "unit": "%"}, {"measurement": "inhibitory rate against SARS-CoV-2", "setting": "[6]; 350 μM", "value": 38.31, "unit": "%"}, {"measurement": "inhibitory rate against SARS-CoV-2", "setting": "[6]; 450 μM", "value": 54.80, "unit": "%"}, {"measurement": "toxicity to Vero cells (significance)", "setting": "[7]; 40 to 400 µM, p > 0.05 vs control", "value": "not toxic to the cells in this range"}, {"measurement": "survival rate of Vero cells", "setting": "[7]; 40 μM", "value": 97.81, "unit": "%"}, {"measurement": "survival rate of Vero cells", "setting": "[7]; 80 μM", "value": 96.97, "unit": "%"}, {"measurement": "survival rate of Vero cells", "setting": "[7]; 160 μM", "value": 98.23, "unit": "%"}, {"measurement": "survival rate of Vero cells", "setting": "[7]; 240 μM", "value": 96.21, "unit": "%"}, {"measurement": "survival rate of Vero cells", "setting": "[7]; 320 μM", "value": 95.85, "unit": "%"}, {"measurement": "survival rate of Vero cells", "setting": "[7]; 400 μM", "value": 92.64, "unit": "%"}, {"measurement": "survival rate of Vero cells", "setting": "[7]; 480 μM", "value": 90.44, "unit": "%"}, {"measurement": "viability rate of BEAS-2B cells", "setting": "[8]; 40 µM", "value": 99.80, "unit": "%"}, {"measurement": "viability rate of BEAS-2B cells", "setting": "[8]; 80 µM", "value": 99.77, "unit": "%"}, {"measurement": "viability rate of BEAS-2B cells", "setting": "[8]; 160 µM", "value": 99.37, "unit": "%"}, {"measurement": "viability rate of BEAS-2B cells", "setting": "[8]; 240 µM", "value": 99.63, "unit": "%"}, {"measurement": "viability rate of BEAS-2B cells", "setting": "[8]; 320 µM", "value": 98.07, "unit": "%"}, {"measurement": "viability rate of BEAS-2B cells", "setting": "[8]; 400 µM", "value": 95.87, "unit": "%"}, {"measurement": "viability rate of BEAS-2B cells", "setting": "[8]; 480 µM", "value": 82.95, "unit": "%"}, {"measurement": "effect on BEAS-2B cell viability (significance)", "setting": "[8]; less than 480 μM, p > 0.05", "value": "no significant effect on cell viability"}, {"measurement": "survival rate of HEK293T cells", "setting": "[9]; 40 μM", "value": 98.28, "unit": "%"}, {"measurement": "survival rate of HEK293T cells", "setting": "[9]; 80 μM", "value": 95.28, "unit": "%"}, {"measurement": "survival rate of HEK293T cells", "setting": "[9]; 160 μM", "value": 94.74, "unit": "%"}, {"measurement": "survival rate of HEK293T cells", "setting": "[9]; 240 μM", "value": 92.39, "unit": "%"}, {"measurement": "survival rate of HEK293T cells", "setting": "[9]; 320 μM", "value": 90.77, "unit": "%"}, {"measurement": "survival rate of HEK293T cells", "setting": "[9]; 400 μM", "value": 92.69, "unit": "%"}, {"measurement": "survival rate of HEK293T cells", "setting": "[9]; 480 μM", "value": 81.66, "unit": "%"}, {"measurement": "effect on HEK293T cell viability (significance)", "setting": "[9]; less than 480 μM, p > 0.05", "value": "no significant effect on cell viability"}]}
{"compound": "thanatin: peptide (thanatin) derived from insects", "values": [{"measurement": "cytotoxicity to HEK293T", "setting": "[10]", "value": "no obvious cytotoxicity"}]}
{"compound": "tuftsin", "values": [{"measurement": "Kd", "setting": "[2]", "value": 460, "unit": "µM"}]}
